Key:
[1] = biological target: T1, recombinant integrin α4β7 (Homo sapiens, UniProt P13612+P26010, DEL724-798); experiment: Integrin α4β7—MAdCAM-1 ELISA competition assay; format: binding; settings: for ELISA Assay Ratio b1/b7: ratio of a4b1 to a4b7 ELISA IC50; for IC50: read-out: ELISA a4b7 Assay IC50
T1 construct: purchased R&D Systems 5397-A3-050
T1 sequence (P13612 34-970 limits assumed): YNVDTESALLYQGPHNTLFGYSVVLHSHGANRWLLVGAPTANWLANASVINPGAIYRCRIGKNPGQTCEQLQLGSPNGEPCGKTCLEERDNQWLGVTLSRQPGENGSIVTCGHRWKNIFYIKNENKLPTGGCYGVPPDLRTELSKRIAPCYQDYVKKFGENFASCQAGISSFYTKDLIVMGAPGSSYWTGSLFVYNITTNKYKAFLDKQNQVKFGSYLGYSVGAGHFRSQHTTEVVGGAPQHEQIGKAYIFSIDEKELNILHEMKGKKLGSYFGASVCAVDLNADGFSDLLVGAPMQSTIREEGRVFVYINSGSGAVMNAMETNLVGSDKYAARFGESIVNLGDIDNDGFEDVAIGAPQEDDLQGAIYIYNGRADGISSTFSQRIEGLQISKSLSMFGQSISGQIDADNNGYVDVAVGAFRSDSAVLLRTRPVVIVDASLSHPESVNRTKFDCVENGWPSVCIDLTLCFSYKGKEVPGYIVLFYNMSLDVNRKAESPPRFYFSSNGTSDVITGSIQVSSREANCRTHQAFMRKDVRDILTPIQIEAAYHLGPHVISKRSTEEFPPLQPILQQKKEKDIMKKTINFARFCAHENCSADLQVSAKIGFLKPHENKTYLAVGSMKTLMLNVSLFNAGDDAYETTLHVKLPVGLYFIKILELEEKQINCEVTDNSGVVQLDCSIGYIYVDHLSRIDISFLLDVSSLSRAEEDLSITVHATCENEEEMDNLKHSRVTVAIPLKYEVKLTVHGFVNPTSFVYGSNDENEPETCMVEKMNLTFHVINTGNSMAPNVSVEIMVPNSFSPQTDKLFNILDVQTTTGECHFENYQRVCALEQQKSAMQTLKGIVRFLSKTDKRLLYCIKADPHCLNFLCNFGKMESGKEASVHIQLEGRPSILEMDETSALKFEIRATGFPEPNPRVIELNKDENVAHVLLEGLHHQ
T1 sequence (P26010 20-723 limits assumed): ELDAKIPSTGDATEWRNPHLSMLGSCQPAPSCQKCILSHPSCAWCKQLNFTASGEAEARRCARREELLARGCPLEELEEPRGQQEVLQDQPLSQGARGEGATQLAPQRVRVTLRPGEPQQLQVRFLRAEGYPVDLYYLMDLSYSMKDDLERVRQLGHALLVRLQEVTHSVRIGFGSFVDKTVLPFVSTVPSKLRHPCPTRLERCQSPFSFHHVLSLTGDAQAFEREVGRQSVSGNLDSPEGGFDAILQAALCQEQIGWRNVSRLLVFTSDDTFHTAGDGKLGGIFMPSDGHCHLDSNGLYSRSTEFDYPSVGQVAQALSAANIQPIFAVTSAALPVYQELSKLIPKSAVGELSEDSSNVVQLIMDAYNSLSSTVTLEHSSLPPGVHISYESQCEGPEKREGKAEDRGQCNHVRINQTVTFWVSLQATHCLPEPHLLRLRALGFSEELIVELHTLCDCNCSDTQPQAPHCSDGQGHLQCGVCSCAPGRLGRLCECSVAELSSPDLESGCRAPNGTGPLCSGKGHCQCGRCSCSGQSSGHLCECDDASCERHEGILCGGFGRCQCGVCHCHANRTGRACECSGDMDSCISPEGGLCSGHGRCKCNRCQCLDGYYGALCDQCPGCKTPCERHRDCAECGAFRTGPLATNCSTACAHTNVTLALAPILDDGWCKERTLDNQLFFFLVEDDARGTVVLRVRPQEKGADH

[2] = biological target: T2, recombinant integrin α4β1 (Homo sapiens, UniProt P05556+P13612); experiment: Integrin α4β1—VCAM-1 competition ELISA; format: binding; settings: read-out: ELISA a4b1 Assay IC50
T2 construct: purchased R&D Systems 5397-A3-050
Experimental: Integrin α4β1—VCAM-1 Competition ELISA
The plate was incubated at 4° C. overnight. […] The plate was then incubated for 1 hour at room temperature. The plate was washed three times with wash buffer (50 mM Tris, 100 mM NaCl, 1 mM MnCl2, 0.05% Tween). To each well, 50 μl of compound diluted in assay buffer was added by transfer from a compound serial dilution plate. […] The plate was incubated at room temperature with shaking (300 rpm) for 2 hours to reach binding equilibrium. Then the plate was washed three times in wash buffer and 100 μl anti-human IgG Fc specific-HRP (Abcam, Ab97225) diluted at 1:2000 in assay buffer was added to each well. The plate was incubated at room temperature for 1 hour under agitation.

T2 sequence (P05556 21-728 limits assumed, one chain of several): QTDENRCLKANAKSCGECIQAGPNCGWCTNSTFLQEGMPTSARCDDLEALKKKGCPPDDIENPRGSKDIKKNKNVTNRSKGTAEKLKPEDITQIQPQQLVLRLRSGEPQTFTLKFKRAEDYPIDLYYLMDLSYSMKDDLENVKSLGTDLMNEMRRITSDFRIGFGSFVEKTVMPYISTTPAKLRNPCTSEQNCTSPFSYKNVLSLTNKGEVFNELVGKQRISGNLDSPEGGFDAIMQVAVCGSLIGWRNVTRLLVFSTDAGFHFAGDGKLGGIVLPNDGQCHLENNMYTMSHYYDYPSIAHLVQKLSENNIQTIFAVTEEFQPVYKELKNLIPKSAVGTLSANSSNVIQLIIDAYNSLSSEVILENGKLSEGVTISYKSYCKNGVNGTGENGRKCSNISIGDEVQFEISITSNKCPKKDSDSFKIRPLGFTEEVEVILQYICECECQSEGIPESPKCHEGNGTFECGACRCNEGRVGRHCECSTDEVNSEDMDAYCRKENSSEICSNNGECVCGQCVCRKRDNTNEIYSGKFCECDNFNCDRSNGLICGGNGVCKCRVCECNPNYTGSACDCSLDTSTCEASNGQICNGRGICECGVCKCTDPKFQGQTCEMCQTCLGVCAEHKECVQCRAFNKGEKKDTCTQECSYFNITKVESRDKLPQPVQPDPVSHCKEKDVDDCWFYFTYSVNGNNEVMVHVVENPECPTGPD

Compound | ELISA Assay Ratio b1/b7 [1] | IC50 [1] | IC50 [2]
CC(C)C[C@@H]1NC(=O)[C@@H](CCCNC(=N)N)N(C)C(=O)[C@H](Cc2ccc(O)cc2)NC(=O)[C@@H]2CCCN2[C@H](C(=O)NC(C)(C)C)[C@H](C)NC(=O)[C@H]([C@@H](C)O)NC(=O)[C@H](CC(=O)O)NC1=O [Compound 157] | 55.3 | 67 nM | 3710 nM
CC(C)C[C@@H]1NC(=O)C[C@H](CCCCN)NC[C@H](Cc2ccc(CN)cc2)NC(=O)[C@@H]2CCCN2[C@H](C(=O)NC(C)(C)C)[C@H](C)NC(=O)[C@H]([C@@H](C)O)NC(=O)[C@H](CC(=O)O)NC1=O [Compound 218] | 16.5 | 190 nM | 3130 nM
CC(C)C[C@@H]1NC(=O)[C@H]2C[C@H](O)CN2C(=O)[C@H](Cc2cscn2)NC(=O)[C@@H]2CCCN2[C@H](C(=O)NC(C)(C)C)[C@H](C)NC(=O)[C@H]([C@@H](C)O)NC(=O)[C@H](CC(=O)O)NC1=O [Compound 151] | 4.1 | 53 nM | 218 nM
CC(C)C[C@@H]1NC(=O)C[C@H](CCCCN)NC(=O)[C@H](Cc2ccc(I)cc2)NC(=O)[C@@H]2CCCN2[C@H](C(=O)NC(C)(C)C)[C@H](C)NC(=O)[C@H]([C@@H](C)O)NC(=O)[C@H](CC(=O)O)NC1=O [Compound 260] | 58.1 | 165 nM | 9560 nM
CC(C)C[C@@H]1NC(=O)[C@H](Cc2csc(-c3ccncc3)n2)NC(=O)[C@@H]2CCCN2[C@H](C(=O)NC(C)(C)C)[C@H](C)NC(=O)[C@H]([C@@H](C)O)NC(=O)[C@H](CC(=O)O)NC1=O [Compound 97] | 2.5 | 124 nM | 311 nM
CC(C)C[C@@H]1NC(=O)c2cccc(c2)CNC(=O)[C@@H]2CCCN2[C@H](C(=O)NC(C)(C)C)[C@H](C)NC(=O)[C@H]([C@@H](C)O)NC(=O)[C@H](CC(=O)O)NC1=O [Compound 358] | 8.7 | 127 nM | 1110 nM
CC(C)C[C@@H]1NC(=O)c2ccc(-c3ccccc3N3CCNCC3)c(c2)CNC(=O)[C@@H]2CCCN2[C@H](C(=O)NC(C)(C)C)[C@H](C)NC(=O)[C@H]([C@@H](C)O)NC(=O)[C@H](CC(=O)O)NC1=O [Compound 348] | 1.5 | 27 nM | 41 nM
CC(C)C[C@@H]1NC(=O)c2ccc(-c3cccc4ncccc34)c(c2)CNC(=O)[C@@H]2CCCN2[C@H](C(=O)NC(C)(C)C)[C@H](C)NC(=O)[C@H]([C@@H](C)O)NC(=O)[C@H](CC(=O)O)NC1=O [Compound 347] | 1.3 | 23 nM | 30 nM
COc1ccccc1-c1ccccc1C[C@@H]1NC(=O)[C@@H]2CCCN2[C@H](C(=O)NC(C)(C)C)[C@H](C)NC(=O)[C@H]([C@@H](C)O)NC(=O)[C@H](CC(=O)O)NC(=O)[C@H](CC(C)C)NC(=O)[C@H]2CCCCN2C1=O [Compound 135] | 4.9 | 24 nM | 119 nM
CC[C@H](C)[C@@H]1NC(=O)[C@H](CC(=O)O)NC(=O)[C@H](CC(C)C)NC(=O)C[C@H](CCCCN)NC(=O)[C@@H](Cc2ccc(CN)cc2)NC(=O)[C@@H]2CCCN2[C@H](C(=O)NC(C)(C)C)[C@H](C)NC1=O [Compound 253] | 15.6 | 69 nM | 1090 nM
CC(C)C[C@@H]1NC(=O)[C@H]2C[C@@H](O)CN2C(=O)[C@H](Cc2ccc(O)cc2)NC(=O)[C@@H]2CCCN2[C@H](C(=O)NC(C)(C)C)[C@H](C)NC(=O)[C@H]([C@@H](C)O)NC(=O)[C@H](CC(=O)O)NC1=O [Compound 141] | 2.0 | 19 nM | 36 nM

Reference: patent publication US11713338B2, “Cyclic peptides multimers targeting α-4-β-7 integrin” (priority 2016, dated 2023)
